Experimental data: patent publication US8859235B2, “Methods in cell cultures, and related inventions, employing certain additives” (priority 2009, dated 2014)

Tests used:
human cancer cells = details: due to SAPK and p38 MAPK signal pathway modulation; US 2004/024025; cited from earlier work
E. coli HM125 = assay: Growth and expression of FimH-CRD in E. coli HM125, shake flask cultivation in mineral medium; assay type: cell-based, Escherichia coli; details: for mg FimH/g cell: control 0.81; for FimH / Cell pellet: mean of triplicate; for FimH: control 6.48 ± 0.36; for Cell pellet: control 7.99 ± 0.25
Source text: Standard molecular techniques are used for the cloning of the FimH carbohydrate recognition domain (FimH-CRD). The plasmid pfimHs-trc, encoding FimH lectin domain (1-156 amino acids M. Vetsch P et. al. 2002—J. Mol. Biol. 322: 827-840), is kindly provided by R. Glockshuber (ETH Zürich, Switzerland). The FimH-CRD fragment is amplified by polymerase chain reaction using specific forward primer containing the restriction site NdeI and a specific reverse primer containing the thrombin cleavage site and the restriction site XhoI, respectively. The insert is ligated into the corresponding cloning site in pET21b. The resulting contrast is named pET21b-FimH-CRD.
Precultures are prepared in 25 mL sterile LB medium [Tryptone (10.0 g/L), yeast extract (5.0 g/L), NaCl (10.0 g/L), ampicillin 100 (mg/L); adjusted to pH 7.0 with NaOH]. Cultures are inoculated with a glycerol stock stored at −80° C. of the protease deficient strain E. coli HM125 (Meerman H J & Georgiou G. 1994. Biotechnology (NY) 2, 1107-1110) harboring the plasmid pET21b-FimH-CRD Vector. Precultures are incubated at 37° C. for 10-12 h. Experimental cultures are performed in a volume of 500 mL of modified M9 medium [Na2HPO4×7H2O (12.8 g/L), KH2PO4 (3 g/L), NaCl (0.5 g/L), NH4Cl (1 g/L), D-glucose (4 g/L), MgSO4 (0.12 g/L), CaCl2 (0.01 g/L) and vitamins (in mg/L): riboflavin (0.1), choline chloride (1), folic Acid (1), niacinamide (1), p-amino benzoic acid (1), pyridoxal-HCl (1), thiamine-HCl (1), myo-lnositol (2)] supplemented with 100 mg/L ampicillin. Cultures are inoculated with 5 mL of the preoculture and grown at 30° C. and 150 rpm) until the optical density at 600 nm (0D600) reached 0.8-1.0. Then 1 mM IPTG and the stabilizer(s) (obligatory additive) according to the invention are added to final concentrations of 5, 10 and 20 mM as indicated from sterile stock solutions and the cultures are grown overnight. Then the cells are cooled on ice for 5 min and harvested by centrifugation at 5′000 rpm for 20 min at 4° C. Cell are harvested by centrifugation and biomass is quantified by weighing the wet cell pellets. The pellet is suspended in a cold solution of 50 mM Tris-HCl, pH 7.5, 150 mM NaCl, 5 mM EDTA, 1 mg/mL polymyxin B sulfate and stirred for two hours at 4° C. After centrifugation at 11′000 rpm for 20 min at 4° C., the supernatant (periplasmic extract) is dialyzed overnight against 50 mM NaH2PO4, 300 mM NaCl and 10 mM imidazole, pH 8 (binding buffer) and applied to a Ni-NTA column (Sigma, Buchs, Switzerland) attached to a BioLogic fast protein liquid chromatography system (BioRad, Reinach BL, Switzerland). The column is washed with binding buffer and afterwards eluted with 50 mM NaH2PO4, 300 mM NaCl and 250 mM imidazole, pH 8 (elution buffer). Fractions containing FimH-CRD-Th-6H is are pooled and dialyzed against water and then against 20 mM HEPES, 150 mM NaCl and 1 mM CaCl2, pH 7.4.
The concentration of protein is determined by HPLC method (Agilent 1100/1200 series) using BSA as standard (Sigma). The column Poros R1/10 10 μm (100×2 mm, Morvay Analytik) is kept at 60° C.; eluents are A: 0.1% trifluoroacetic acid (TFA) in H2O and B: 90% MeCN+0.09% TFA. A gradient of 20% B to 90% B is run within 20 min at a flow rate of 0.2 mL/min. The detection is monitored at 210 nm. Results are compiled in the following tables 5 and 6.

Q: What does the source list for `CC1(C)CCCC(C)(C)N1[O]` [TEMPO, 2,2,6,6-Tetramethyl-1-piperidinyloxy radical, reference compound]?
A: Apoptosis in human cancer cells (human cancer cells): increased apoptosis; mg FimH/g cell (E. coli HM125; additive 5 mM): 1.14 mg FimH/g cell; FimH (E. coli HM125; additive 5 mM): 8.85 ± 0.21 mg/L; Cell pellet (E. coli HM125; additive 5 mM): 7.78 ± 0.45 g/L; mg FimH/g cell (E. coli HM125; additive 10 mM): 1.15 mg FimH/g cell; FimH (E. coli HM125; additive 10 mM): 8.61 ± 0.14 mg/L; Cell pellet (E. coli HM125; additive 10 mM): 7.44 ± 0.32 g/L; mg FimH/g cell (E. coli HM125; additive 20 mM): 1.26 mg FimH/g cell; FimH (E. coli HM125; additive 20 mM): 8.26 ± 0.54 mg/L; Cell pellet (E. coli HM125; additive 20 mM): 6.54 ± 0.2 g/L
